From ChEMBL document CHEMBL1681743, “Novel second generation analogs of eribulin. Part III: Blood-brain barrier permeability and in vivo activity in a brain tumor model” (Bioorg Med Chem Lett, 2011)
Counter-ions that a name gives are not always drawn. Activity calls are given as the source filed them. No cut-off for these calls is given here.

Assays:
[1] = Antiproliferative activity against human doxorubicin-resistant MES-SA/Dx5-Rx1 cells; type: functional
[2] = Antiproliferative activity against human MES-SA cells; type: functional, cell-based
[3] = system: U-251; assay: Antiproliferative activity against human U251 cells; type: functional, cell-based
[4] = Fraction unbound in BALB/c mouse brain at 5 mg/kg, iv; type: ADME, organism-based; parameters: dose 5 mg/kg, route intravenous
[5] = system: Mus musculus; assay: AUC (0 to infinity) in BALB/c mouse at 5 mg/kg, iv; type: ADME, organism-based, Brain; parameters: time infinity, dose 5 mg/kg, route intravenous; details: in vivo
[6] = Brain penetration index, ratio of AUC (0 to infinity) in brain to plasma of BALB/c mouse at 5 mg/kg, iv; type: ADME, organism-based; parameters: dose 5 mg/kg, route intravenous
[7] = Half life in BALB/c mouse at 5 mg/kg, iv; type: ADME, organism-based; parameters: dose 5 mg/kg, route intravenous; details: in vivo
[8] = Tmax in BALB/c mouse at 5 mg/kg, iv; type: ADME, organism-based; parameters: dose 5 mg/kg, route intravenous; details: in vivo
[9] = CSF penetration index, ratio of AUC (0 to infinity) in CSF to plasma of Sprague-Dawley rat at 4 mg/kg, iv; type: ADME, organism-based; parameters: dose 4 mg/kg, route intravenous
[10] = system: SF-295; assay: Antiproliferative activity against human SF295 cells; type: functional, cell-based
[11] = system: U-251; assay: Antitumor activity against human U251 cells infected in athymic mouse assessed as increase in mouse survival at 1.1 to 2.5 mg/kg relative to control; type: functional; details: dose mg/kg 1.1-2.5
[12] = system: SF-295; assay: Antitumor activity against human SF295 cells infected in athymic mouse assessed as increase in mouse survival at 0.36 to 0.80 mg/kg relative to control; type: functional, organism-based

| Compound | IC50 [3] [nM] | fraction unbound [4] | AUC [5] [ng·h/g] | Ratio AUC [6] [mL/g] | half-life [7] [h] | Tmax [8] [min] | Kp [9] | IC50 [1] [nM] | IC50 [2] [nM] | IC50 [10] [nM] | Activity [11] [%] | Activity [12] |
| --- | --- | --- | --- | --- | --- | --- | --- | --- | --- | --- | --- | --- |
| C=C1C[C@@H]2CC[C@@]34C[C@H]5O[C@H]6[C@@H](O3)[C@H]3O[C@H](CC[C@@H]3O[C@H]6[C@H]5O4)CC(=O)C[C@@H]3[C@@H](OC)[C@@H](C[C@@H](CN4CCOCC4)OC)O[C@H]3C[C@H]3O[C@@H](CC[C@@H]1O2)C[C@@H](C)C3=C | 1.97 | 0.113 | 1351 | 1.4 | 0.9 | 4.8 | 2.2 | 1.91 | 0.16 |  |  |  |
| C=C1C[C@@H]2CC[C@@]34C[C@H]5O[C@H]6[C@@H](O3)[C@H]3O[C@H](CC[C@@H]3O[C@H]6[C@H]5O4)CC(=O)C[C@@H]3[C@@H](OC)[C@@H](C[C@@H](CN4CC(C)CC(C)C4)OC)O[C@H]3C[C@H]3O[C@@H](CC[C@@H]1O2)C[C@@H](C)C3=C (some centres not stated) | 2.55 | 0.034 | 3108 | 1.7 | 5.3 | 4.8 |  | 2.41 | 0.13 | 0.1 |  |  |
| C=C1C[C@@H]2CC[C@@]34C[C@H]5O[C@H]6[C@@H](O3)[C@H]3O[C@H](CC[C@@H]3O[C@H]6[C@H]5O4)CC(=O)C[C@@H]3[C@@H](OC)[C@@H](CC(=O)CN4CCOCC4)O[C@H]3C[C@H]3O[C@@H](CC[C@@H]1O2)C[C@@H](C)C3=C | 0.88 |  |  |  |  |  |  | 3.12 | 0.25 |  |  |  |
| CC(=O)O[C@H]1C(=O)[C@@]2(C)[C@H]([C@H](OC(=O)c3ccccc3)[C@]3(O)C[C@H](OC(=O)[C@H](O)[C@@H](NC(=O)c4ccccc4)c4ccccc4)C(C)=C1C3(C)C)[C@]1(OC(C)=O)CO[C@@H]1C[C@@H]2O [PACLITAXEL] |  |  |  |  |  |  |  | > 1000 |  | 24.6 |  |  |
| C=C1C[C@@H]2CC[C@@]34C[C@H]5O[C@H]6[C@@H](O3)[C@H]3O[C@H](CC[C@@H]3O[C@H]6[C@H]5O4)CC(=O)C[C@@H]3[C@@H](OC)[C@@H](CCN4CCOCC4)O[C@H]3C[C@H]3O[C@@H](CC[C@@H]1O2)C[C@@H](C)C3=C | 1.26 |  |  |  |  |  |  | 2.52 | 0.12 |  |  |  |
| C=C(C)CN(CC)C[C@H](C[C@H]1O[C@H]2C[C@H]3O[C@@H](CC[C@@H]4O[C@@H](CC[C@@]56C[C@H]7O[C@H]8[C@@H](O5)[C@H]5O[C@H](CC[C@@H]5O[C@H]8[C@H]7O6)CC(=O)C[C@@H]2[C@H]1OC)CC4=C)C[C@@H](C)C3=C)OC | 3.74 |  |  |  |  |  |  | 2.73 | 0.23 |  |  |  |
| C=C(C)CN1CCO[C@@H](C[C@H]2O[C@H]3C[C@H]4O[C@@H](CC[C@@H]5O[C@@H](CC[C@@]67C[C@H]8O[C@H]9[C@@H](O6)[C@H]6O[C@H](CC[C@@H]6O[C@H]9[C@H]8O7)CC(=O)C[C@@H]3[C@H]2OC)CC5=C)C[C@@H](C)C4=C)C1 | 0.5 | 0.024 | 1362 | 1.8 | 1.2 | 4.8 |  | 1.53 | 0.25 | 0.26 | >175 | Active |
| C=C1C[C@@H]2CC[C@@]34C[C@H]5O[C@H]6[C@@H](O3)[C@H]3O[C@H](CC[C@@H]3O[C@H]6[C@H]5O4)CC(=O)C[C@@H]3[C@@H](OC)[C@@H](C[C@H](O)CN)O[C@H]3C[C@H]3O[C@@H](CC[C@@H]1O2)C[C@@H](C)C3=C [ERIBULIN MESYLATE] | 5.87 |  | 435 | 0.55 | 46 | 30 |  |  |  | 27.9 |  |  |
| C=C1C[C@@H]2CC[C@@]34C[C@H]5O[C@H]6[C@@H](O3)[C@H]3O[C@H](CC[C@@H]3O[C@H]6[C@H]5O4)CC(=O)C[C@@H]3[C@@H](OC)[C@@H](CCNCC(F)F)O[C@H]3C[C@H]3O[C@@H](CC[C@@H]1O2)C[C@@H](C)C3=C | 4.05 |  |  |  |  |  |  | 31.9 | 1.91 |  |  |  |
| C=C1C[C@@H]2CC[C@@]34C[C@H]5O[C@H]6[C@@H](O3)[C@H]3O[C@H](CC[C@@H]3O[C@H]6[C@H]5O4)CC(=O)C[C@@H]3[C@@H](OC)[C@@H](CCCN4CCOCC4)O[C@H]3C[C@H]3O[C@@H](CC[C@@H]1O2)C[C@@H](C)C3=C | 1.44 | 0.101 | 10200 | 7.7 | 4.6 | 15 |  | 1.3 | 0.083 |  |  |  |

Continued, in another order:

| IC50 [3] [nM] | fraction unbound [4] | AUC [5] [ng·h/g] | Ratio AUC [6] [mL/g] | half-life [7] [h] | Tmax [8] [min] | Kp [9] | Compound | IC50 [1] [nM] | IC50 [2] [nM] | IC50 [10] [nM] | Activity [11] [%] | Activity [12] |
| --- | --- | --- | --- | --- | --- | --- | --- | --- | --- | --- | --- | --- |
| 0.33 |  |  |  |  |  |  | C=C1C[C@@H]2CC[C@@]34C[C@H]5O[C@H]6[C@@H](O3)[C@H]3O[C@H](CC[C@@H]3O[C@H]6[C@H]5O4)CC(=O)C[C@@H]3[C@@H](OC)[C@@H](C[C@@H](CN4CCC(C(F)(F)F)CC4)OC)O[C@H]3C[C@H]3O[C@@H](CC[C@@H]1O2)C[C@@H](C)C3=C | 0.83 | 0.14 |  |  |  |
| 0.74 |  |  |  |  |  |  | C=C1C[C@@H]2CC[C@@]34C[C@H]5O[C@H]6[C@@H](O3)[C@H]3O[C@H](CC[C@@H]3O[C@H]6[C@H]5O4)CC(=O)C[C@@H]3[C@@H](OC)[C@@H](C[C@@H](COC)OC)O[C@H]3C[C@H]3O[C@@H](CC[C@@H]1O2)C[C@@H](C)C3=C |  | 0.24 |  |  |  |
| 0.61 |  |  |  |  |  |  | C=C(C)CN(CC)CC[C@H]1O[C@H]2C[C@H]3O[C@@H](CC[C@@H]4O[C@@H](CC[C@@]56C[C@H]7O[C@H]8[C@@H](O5)[C@H]5O[C@H](CC[C@@H]5O[C@H]8[C@H]7O6)CC(=O)C[C@@H]2[C@H]1OC)CC4=C)C[C@@H](C)C3=C | 2.89 | 0.23 |  |  |  |
| 0.28 |  |  |  |  |  |  | C=C1C[C@@H]2CC[C@@]34C[C@H]5O[C@H]6[C@@H](O3)[C@H]3O[C@H](CC[C@@H]3O[C@H]6[C@H]5O4)CC(=O)C[C@@H]3[C@@H](OC)[C@@H](CCN4CCC(C(F)(F)F)CC4)O[C@H]3C[C@H]3O[C@@H](CC[C@@H]1O2)C[C@@H](C)C3=C | 0.75 | 0.11 |  |  |  |
| 0.18 |  |  |  |  |  |  | C#CCN(C)C[C@H](C[C@H]1O[C@H]2C[C@H]3O[C@@H](CC[C@@H]4O[C@@H](CC[C@@]56C[C@H]7O[C@H]8[C@@H](O5)[C@H]5O[C@H](CC[C@@H]5O[C@H]8[C@H]7O6)CC(=O)C[C@@H]2[C@H]1OC)CC4=C)C[C@@H](C)C3=C)OC | 0.95 | 0.18 | 0.41 |  |  |
